Assay results from the supplement of paper PMC10307832.

compound: CN(C)C(=N)NC(=N)N [Metformin] + CS(=O)(=O)N1CCN(Cc2cc3nc(-c4cccc5[nH]ncc45)nc(N4CCOCC4)c3s2)CC1 [Pictilisib] (partner 1 µM); test: relative viability (nuclei count vs DMSO), 5 days (fraction); higher = more cells survive; settings: first compound 1000 µM
Summary of the method: (§1)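 Relative viability is defined as nuclei in treated wells over nuclei in vehicle wells. Duplicate plates were run and medians reported. Lung cancer cell lines in 1536-well plates were dosed by pin tool one day after seeding, with one drug or with a fixed anchor-drug dose plus five library-drug doses (not always all listed) in √10 steps, and nuclei were counted after 5 days.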

Row | Cell Line | relative viability
1 | ChaGo-K-1 | 0.906
2 | EBC-1 | 0.313
3 | EKVX | 0.392
4 | EMC-BAC-2 | 0.523
5 | EPLC-272H | 0.302
6 | H3255 | 0.478
7 | HARA | 0.46
8 | HCC-15 | 0.823
9 | HCC-44 | 0.7
10 | HCC-78 | 0.244
11 | HCC-366 | 0.185
12 | HCC-827 | 1.15
13 | HOP-62 | 0.657
14 | IA-LM | 0.303
15 | LC-2-ad | 0.408
16 | LCLC-97TM1 | 0.223
17 | LCLC-103H | 0.607
18 | LK-2 | 0.769
19 | LOU-NH91 | 0.549
20 | LU99A | 0.241
21 | LXF-289 | 0.76
22 | NCI-H441 | 0.589

compound: N#CC1(c2ccc(NC(=O)c3cccnc3NCc3ccncc3)cc2)CCCC1 [Apatinib] + CS(=O)(=O)CCNCc1ccc(-c2ccc3ncnc(Nc4ccc(OCc5cccc(F)c5)c(Cl)c4)c3c2)o1 [Lapatinib] (partner 2 µM); test: as above; settings: first compound 0.08 µM
Summary of the method: as §1

Row | Cell Line | relative viability
23 | 201T | 1.07
24 | A549 | 1.14
25 | A-427 | 1.06
26 | ABC-1 | 1.03
27 | BEN | 0.604
28 | CAL-12T | 0.736
29 | COR-L23 | 0.919
30 | COR-L 105 | 0.358
31 | Calu-6 | 1.13
32 | EBC-1 | 0.194
33 | EKVX | 0.186
34 | EMC-BAC-2 | 0.954
35 | EPLC-272H | 1.13
36 | H3255 | 0.235
37 | HARA | 0.755
38 | HCC-15 | 0.928
39 | HCC-44 | 1.04
40 | HCC-78 | 0.568
41 | HCC-366 | 1.07
42 | HCC-827 | 0.197
43 | HOP-62 | 0.994
44 | IA-LM | 0.814
45 | LC-2-ad | 0.925
46 | LCLC-97TM1 | 0.845
47 | LK-2 | 0.7
48 | LOU-NH91 | 0.727
49 | LU99A | 1.02
50 | LXF-289 | 0.935

same assay, conditions: first compound 0.253 µM

Row | Cell Line | relative viability
51 | 201T | 0.976
52 | A549 | 1.05
53 | A-427 | 1.1
54 | ABC-1 | 1.45
55 | BEN | 0.67
56 | CAL-12T | 0.608
57 | COR-L23 | 1.16
58 | COR-L 105 | 0.342
59 | Calu-6 | 1.1
60 | EBC-1 | 0.197
61 | EKVX | 0.131
62 | EMC-BAC-2 | 0.886
63 | EPLC-272H | 0.874
64 | H3255 | 0.227
65 | HARA | 0.895
66 | HCC-15 | 0.859
67 | HCC-44 | 0.993
68 | HCC-78 | 0.731
69 | HCC-366 | 1.14
70 | HCC-827 | 0.177
71 | IA-LM | 0.677
72 | LC-2-ad | 0.998
73 | LCLC-97TM1 | 0.818
74 | LK-2 | 0.827
75 | LOU-NH91 | 0.726
76 | LU99A | 1.07
77 | LXF-289 | 0.894

same assay, conditions: first compound 0.8 µM

Row | Cell Line | relative viability
78 | 201T | 0.983
79 | A549 | 1.04
80 | A-427 | 1.06
81 | ABC-1 | 1.42
82 | BEN | 0.764
83 | CAL-12T | 0.778
84 | COR-L23 | 1.05
85 | COR-L 105 | 0.354
86 | Calu-6 | 0.988
87 | EBC-1 | 0.235
88 | EKVX | 0.229
89 | EMC-BAC-2 | 0.878
90 | EPLC-272H | 1.11
91 | H3255 | 0.231
92 | HARA | 0.674
93 | HCC-15 | 0.808
94 | HCC-44 | 0.991
95 | HCC-78 | 0.942
96 | HCC-366 | 0.98
97 | HCC-827 | 0.165
98 | HOP-62 | 0.945
99 | IA-LM | 0.772
100 | LC-2-ad | 0.947
101 | LCLC-97TM1 | 0.586
102 | LK-2 | 0.878
103 | LOU-NH91 | 0.754
104 | LU99A | 0.969
105 | LXF-289 | 0.888

same assay, conditions: first compound 2.53 µM

Row | Cell Line | relative viability
106 | 201T | 0.975
107 | A549 | 0.944
108 | A-427 | 0.984
109 | ABC-1 | 1.14
110 | BEN | 0.578
111 | CAL-12T | 0.575
112 | COR-L23 | 0.792
113 | COR-L 105 | 0.336
114 | Calu-6 | 0.919
115 | EBC-1 | 0.231
116 | EKVX | 0.186
117 | EMC-BAC-2 | 0.877
118 | EPLC-272H | 0.708
119 | H3255 | 0.311
120 | HARA | 0.731
121 | HCC-15 | 0.742
122 | HCC-44 | 0.945
123 | HCC-78 | 0.829
124 | HCC-366 | 0.979
125 | HCC-827 | 0.19
126 | HOP-62 | 0.955
127 | IA-LM | 0.6
128 | LC-2-ad | 0.9
129 | LCLC-97TM1 | 0.604
130 | LK-2 | 0.782
131 | LOU-NH91 | 0.712
132 | LU99A | 0.821
133 | LXF-289 | 0.838

same assay, conditions: first compound 8 µM

Row | Cell Line | relative viability
134 | 201T | 1.01
135 | A549 | 0.842
136 | A-427 | 0.982
137 | ABC-1 | 0.993
138 | BEN | 0.591
139 | CAL-12T | 0.589
140 | COR-L23 | 0.722
141 | COR-L 105 | 0.33
142 | Calu-6 | 0.789
143 | EBC-1 | 0.237
144 | EKVX | 0.188
145 | EMC-BAC-2 | 0.807
146 | EPLC-272H | 1.05
147 | H3255 | 0.286
148 | HARA | 0.623
149 | HCC-15 | 0.827
150 | HCC-44 | 0.941
151 | HCC-78 | 0.748
152 | HCC-366 | 1.02
153 | HCC-827 | 0.196
154 | HOP-62 | 0.929
155 | IA-LM | 0.305
156 | LC-2-ad | 0.71
157 | LCLC-97TM1 | 0.475
158 | LK-2 | 0.73
159 | LOU-NH91 | 0.77
160 | LU99A | 0.954
161 | LXF-289 | 0.875
